Columns and labels:
Format in all cases: cell-based
mouse fibroblast L929 = experiment: MTT antiproliferative assay, L929; conditions: Mus musculus, L929, 48 h, 0–50 μM, read-out: Antiproliferative activity IC50 ± SEM, L929
Procedure: (§1) The in vitro antiproliferative activity of 33 TMPH compounds was evaluated by MTT assay ([Medica et al., 2022]). Five types of TNBC-related cell lines (human breast cancer MCF-7 and MDA-MB-231, mouse breast cancer 4T1, mouse fibroblast L929, and human umbilical vein endothelial HUVEC cell lines) were used. The cell lines were obtained from the Shanghai Institute of Biochemistry and Cell Biology of the Chinese Academy of Sciences (Shanghai, China). The cell lines were cultured in DMEM supplemented with 1% penicillin–streptomycin solution (100×) and 10% FBS at 37°C under a humid atmosphere containing 5% CO2. After cell passage, cryopreservation, and resuscitation, the growth-inhibitory effects against the five cell lines were determined by MTT assay. The 33 TMPH compounds and the reference control drug cisplatin were dissolved in 0.1% DMSO solution. The cell lines were maintained in 96-well plates and subjected to each test compound (0–50 μM) at 37°C for 48 h. After treatment with 1 mg/ml MTT solution for 4 h, the formazan crystals were dissolved in each well. A microplate reader (Varioskan Flash 3001, Thermo Scientific) was used to determine the cell viability at 490 nm, and each experiment was repeated four times. The collected data were expressed as the mean ± SEM. The inhibitory concentration of the 34 compounds at 50% (IC50) was calculated via concentration–inhibition relationship regression by SPSS software.

mouse breast cancer 4T1 = experiment: MTT antiproliferative assay, 4T1; conditions: Mus musculus, 48 h, 0–50 μM, read-out: Antiproliferative activity IC50 ± SEM, 4T1
Procedure: as §1

[1] = test system: human breast cancer MDA-MB-231; experiment: MTT antiproliferative assay, MDA-MB-231; conditions: for IC50: Homo sapiens, MDA-MB-231, MTT, 48 h, 0–50 μM, read-out: Antiproliferative activity IC50 ± SEM, MDA-MB-231; for SI, selectivity index: SI = IC50 (L929)/IC50 (MDA-MB-231)
Procedure: as §1

[2] = test system: human umbilical vein endothelial HUVEC; experiment: MTT antiproliferative assay, HUVEC; conditions: Homo sapiens, HUVEC, 48 h, 0–50 μM, read-out: Antiproliferative activity IC50 ± SEM, HUVEC
Procedure: as §1

[3] = test system: human breast cancer MCF-7; experiment: MTT antiproliferative assay, MCF-7; conditions: Homo sapiens, MCF7, 48 h, 0–50 μM, read-out: Antiproliferative activity IC50 ± SEM, MCF-7
Procedure: as §1

Cc1nc(C)c(C(=O)NCCCCCCCCNC(=O)C=Cc2ccccc2)nc1C [8–1]
IC50 (mouse fibroblast L929): 16.58 ± 0.12 µM | IC50 (mouse breast cancer 4T1): > 20 µM | IC50 [1]: 2.52 ± 0.08 µM | SI, selectivity index [1]: 6.58 | IC50 [2]: > 20 µM | IC50 [3]: 10.99 ± 0.06 µM

Cc1nc(C)c(C(=O)NCCCCCCCCNC(=O)c2cc3ccccc3o2)nc1C [8–2]
IC50 (mouse fibroblast L929): > 20 µM | IC50 (mouse breast cancer 4T1): 19.86 ± 0.16 µM | IC50 [1]: 6.1 ± 0.16 µM | SI, selectivity index [1]: >3.28 | IC50 [2]: 4.27 ± 0.07 µM | IC50 [3]: 6.62 ± 0.15 µM

Cc1nc(C)c(C(=O)NCCCCCCCCNC(=O)c2cc3ccccc3[nH]2)nc1C [8–4]
IC50 (mouse fibroblast L929): 10.7 ± 0.43 µM | IC50 (mouse breast cancer 4T1): > 20 µM | IC50 [1]: 5.77 ± 0.09 µM | SI, selectivity index [1]: 1.85 | IC50 [2]: > 20 µM | IC50 [3]: 6.21 ± 0.14 µM

Cc1nc(C)c(C(=O)NCCCCCCCCNC(=O)c2cnc3ccccc3c2)nc1C [8–5]
IC50 (mouse fibroblast L929): 3.49 ± 0.28 µM | IC50 (mouse breast cancer 4T1): 2.07 ± 0.04 µM | IC50 [1]: 3.44 ± 0.16 µM | SI, selectivity index [1]: 1.01 | IC50 [2]: > 20 µM | IC50 [3]: 4.96 ± 0.25 µM

Cc1nc(C)c(C(=O)NCCCCCCCCNC(=O)c2ccc3ncccc3c2)nc1C [8–6]
IC50 (mouse fibroblast L929): > 20 µM | IC50 (mouse breast cancer 4T1): 1.94 ± 0.03 µM | IC50 [1]: 1.02 ± 0.15 µM | SI, selectivity index [1]: >19.61 | IC50 [2]: > 20 µM | IC50 [3]: > 20 µM

Cc1nc(C)c(C(=O)NCCCCCCCCNC(=O)c2ccc3cc[nH]c3c2)nc1C [8–9]
IC50 (mouse fibroblast L929): > 20 µM | IC50 (mouse breast cancer 4T1): 3.74 ± 0.19 µM | IC50 [1]: 8.45 ± 0.14 µM | SI, selectivity index [1]: >2.37 | IC50 [2]: > 20 µM | IC50 [3]: > 20 µM

COc1ccc(C=CC(=O)NCCCCCCCCNC(=O)c2nc(C)c(C)nc2C)cc1OC [8–11]
IC50 (mouse fibroblast L929): > 20 µM | IC50 (mouse breast cancer 4T1): 12 ± 0.46 µM | IC50 [1]: 5.05 ± 0.02 µM | SI, selectivity index [1]: >3.96 | IC50 [2]: 10.35 ± 0.03 µM | IC50 [3]: > 20 µM

COc1cc(C=CC(=O)NCCCCCCCCNC(=O)c2nc(C)c(C)nc2C)cc(OC)c1OC [8–12]
IC50 (mouse fibroblast L929): > 20 µM | IC50 (mouse breast cancer 4T1): 10.2 ± 0.32 µM | IC50 [1]: 11.2 ± 0.12 µM | SI, selectivity index [1]: >1.78 | IC50 [2]: > 20 µM | IC50 [3]: 5.38 ± 0.13 µM

Cc1nc(C)c(C(=O)NCCCCCCCCNC(=O)c2ccc3ccccc3c2)nc1C [8–13]
IC50 (mouse fibroblast L929): 15.7 ± 0.36 µM | IC50 (mouse breast cancer 4T1): 13.7 ± 0.24 µM | IC50 [1]: 2.44 ± 0.09 µM | SI, selectivity index [1]: 6.42 | IC50 [2]: 14.4 ± 0.03 µM | IC50 [3]: > 20 µM

Cc1nc(C)c(C(=O)NCCCCCCCCCCNC(=O)C=Cc2ccccc2)nc1C [10–1]
IC50 (mouse fibroblast L929): 4.36 ± 0.37 µM | IC50 (mouse breast cancer 4T1): 2.86 ± 0.18 µM | IC50 [1]: 1.14 ± 0.08 µM | SI, selectivity index [1]: 3.82 | IC50 [2]: > 20 µM | IC50 [3]: 2.61 ± 0.19 µM

Cc1nc(C)c(C(=O)NCCCCCCCCCCNC(=O)c2cc3ccccc3o2)nc1C [10–2]
IC50 (mouse fibroblast L929): 11.7 ± 0.81 µM | IC50 (mouse breast cancer 4T1): > 20 µM | IC50 [1]: 8.41 ± 0.18 µM | SI, selectivity index [1]: 1.39 | IC50 [2]: 16.6 ± 0.68 µM | IC50 [3]: 4.19 ± 0.15 µM

Cc1nc(C)c(C(=O)NCCCCCCCCCCNC(=O)c2cc3ccccc3s2)nc1C [10–3]
IC50 (mouse fibroblast L929): 7.26 ± 0.16 µM | IC50 (mouse breast cancer 4T1): 17.6 ± 1.16 µM | IC50 [1]: 4.16 ± 0.25 µM | SI, selectivity index [1]: 1.75 | IC50 [2]: > 20 µM | IC50 [3]: 18.5 ± 1.34 µM

Cc1nc(C)c(C(=O)NCCCCCCCCCCNC(=O)c2cc3ccccc3[nH]2)nc1C [10–4]
IC50 (mouse fibroblast L929): > 20 µM | IC50 (mouse breast cancer 4T1): > 20 µM | IC50 [1]: 13 ± 0.27 µM | SI, selectivity index [1]: >1.54 | IC50 [2]: > 20 µM | IC50 [3]: > 20 µM

Cc1nc(C)c(C(=O)NCCCCCCCCCCNC(=O)c2cnc3ccccc3c2)nc1C [10–5]
IC50 (mouse fibroblast L929): 5.18 ± 0.27 µM | IC50 (mouse breast cancer 4T1): > 20 µM | IC50 [1]: 5.76 ± 0.13 µM | SI, selectivity index [1]: 0.90 | IC50 [2]: > 20 µM | IC50 [3]: 8.72 ± 0.49 µM

Cc1nc(C)c(C(=O)NCCCCCCCCCCNC(=O)C=Cc2ccc(Cl)cc2)nc1C [10–10]
IC50 (mouse fibroblast L929): 10.1 ± 0.52 µM | IC50 (mouse breast cancer 4T1): > 20 µM | IC50 [1]: 2.83 ± 0.09 µM | SI, selectivity index [1]: 3.58 | IC50 [2]: 11.2 ± 0.38 µM | IC50 [3]: 2.93 ± 0.05 µM

COc1ccc(C=CC(=O)NCCCCCCCCCCNC(=O)c2nc(C)c(C)nc2C)cc1OC [10–11]
IC50 (mouse fibroblast L929): > 20 µM | IC50 (mouse breast cancer 4T1): > 20 µM | IC50 [1]: 12.9 ± 1.41 µM | SI, selectivity index [1]: >1.55 | IC50 [2]: > 20 µM | IC50 [3]: 3.23 ± 0.03 µM
